Assay results taken from patent US12319672B2, “Alpha-D-galactopyranoside derivatives” (Idorsia Pharmaceuticals Ltd, priority 2019, dated 2025).

Columns and labels:
human Gal-1 (hGal-1) = assay: Competitive binding assay: binding of biotinylated hGal-1 to microplate-adsorbed asialofetuin (ASF); settings: Activities on hGal-1; mean values of several measurements
Procedure, shortened: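 For hGal-1, a variant with all six cysteines replaced by serines is preferred. Either galectin, biotinylated at 300-1000 ng/mL, competes with compound for microplate-bound ASF over 3 h at 4° C; peroxidase/ABTS detection gives IC50, averaged.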

human Gal-3 (hGal-3) = human Gal-3 (hGal-3) (Homo sapiens (Human), UniProt P17931); assay: Competitive binding assay: binding of biotinylated hGal-3 to microplate-adsorbed asialofetuin (ASF); settings: Activity on hGal-3; mean values of several measurements
Procedure, shortened: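 Compounds in DMSO dilution series competed with 300-1000 ng/mL biotinylated hGal-3 for asialofetuin adsorbed on the plate (3 h, 4° C). Streptavidin-peroxidase at 80 ng/mL (1 h, 4° C) with ABTS gave a spectrophotometric read-out, and IC50 was reported as the mean of repeat runs.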

Chain of human Gal-3 (hGal-3) (P17931 whole entry): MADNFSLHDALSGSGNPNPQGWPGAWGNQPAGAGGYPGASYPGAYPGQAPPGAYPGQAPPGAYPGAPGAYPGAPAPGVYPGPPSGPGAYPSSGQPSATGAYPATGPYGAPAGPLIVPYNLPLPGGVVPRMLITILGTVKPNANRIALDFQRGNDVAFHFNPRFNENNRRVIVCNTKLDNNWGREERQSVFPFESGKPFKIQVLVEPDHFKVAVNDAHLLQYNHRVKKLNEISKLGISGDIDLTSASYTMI
Chain of human Gal-1 (hGal-1) (P09382 2-135 limits assumed): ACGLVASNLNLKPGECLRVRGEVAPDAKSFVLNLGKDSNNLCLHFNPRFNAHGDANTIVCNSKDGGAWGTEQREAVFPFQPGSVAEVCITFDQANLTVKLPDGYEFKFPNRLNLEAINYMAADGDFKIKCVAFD

SMILES | IC50 (human Gal-1 (hGal-1)) [µM] | IC50 (human Gal-3 (hGal-3)) [µM]
O=c1ccc(C2=NOC(C[C@H]3O[C@H](CO)[C@H](O)[C@H](n4cc(-c5cc(F)c(F)c(F)c5)nn4)[C@H]3O)C2)c[nH]1 (mixture of isomers) [Example 2.02] | 5.08 | 0.25
O=c1cc(C2=NOC(C[C@H]3O[C@H](CO)[C@H](O)[C@H](n4cc(-c5cc(F)c(F)c(F)c5)nn4)[C@H]3O)C2)cc[nH]1 (mixture of isomers) [Example 2.03] | 0.55 | 0.3
CO[C@@H]1[C@@H](n2cc(-c3cc(F)c(F)c(F)c3)nn2)[C@@H](O)[C@@H](CO)O[C@@H]1CC1CC(c2cc[nH]c(=O)c2)=NO1 (mixture of isomers) [Example 2.06] | 0.26 | 0.24
CO[C@@H]1[C@@H](n2cc(-c3cc(F)c(F)c(F)c3)nn2)[C@@H](O)[C@@H](CO)O[C@@H]1Cc1cc(C2CCN(C(C)=O)C2)on1 (mixture of isomers) [Example 2.09] | 8.38 | 0.66
CO[C@@H]1[C@@H](n2cc(-c3cc(F)c(F)c(F)c3)nn2)[C@@H](O)[C@@H](CO)O[C@@H]1Cc1cc(C2(O)CCCN(C(C)=O)CC2)on1 (mixture of isomers) [Example 2.10] | 4.47 | 0.45
CC(=O)O[C@@H]1[C@@H](n2cc(-c3cc(F)c(F)c(F)c3)nn2)[C@@H](O)[C@@H](CO)O[C@@H]1CC1CC(C2CCNCC2)=NO1 (mixture of isomers) [Example 3.14, (2R,3R,4S,5R,6R)-5-hydroxy-6-(hydroxymethyl)-2-(((RS)-3-(piperidin-4-yl)-4,5-dihydroisoxazol-5-yl)methyl)-4-(4-(3,4,5-trifluorophenyl)-1H-1,2,3-triazol-1-yl)tetrahydro-2H-pyran-3-yl acetate] | 6.84 | 0.32
COC1CCC(N2C[C@@H](C[C@H]3O[C@H](CO)[C@H](O)[C@H](n4cc(-c5cc(F)c(F)c(F)c5)nn4)[C@H]3OC)OC2=O)CC1 (mixture of isomers) [Example 5.25, (RS)-5-(((2R,3R,4S,5R,6R)-5-hydroxy-6-(hydroxymethyl)-3-methoxy-4-(4-(3,4,5-trifluorophenyl)-1H-1,2,3-triazol-1-yl)tetrahydro-2H-pyran-2-yl)methyl)-3-((1r,4R)-4-methoxycyclohexyl)oxazolidin-2-one] | 12.7 | 0.74
COC1CCC(N2C[C@H](C[C@H]3O[C@H](CO)[C@H](O)[C@H](n4cc(-c5cc(F)c(F)c(F)c5)nn4)[C@H]3OC)OC2=O)CC1 (mixture of isomers) [Example 5.26, (RS)-5-(((2R,3R,4S,5R,6R)-5-hydroxy-6-(hydroxymethyl)-3-methoxy-4-(4-(3,4,5-trifluorophenyl)-1H-1,2,3-triazol-1-yl)tetrahydro-2H-pyran-2-yl)methyl)-3-((1s,4S)-4-methoxycyclohexyl)oxazolidin-2-one] | 11.8 | 1.24
COc1ccc(C2=NOC(C[C@H]3O[C@H](CO)[C@H](O)[C@H](n4cc(-c5cc(F)c(F)c(F)c5)nn4)[C@H]3O)C2)cc1 (stereo partly drawn) [Ex 1.02] | 53.9 | 0.49
COc1ccc(C2=NO[C@H](C[C@H]3O[C@H](CO)[C@H](O)[C@H](n4cc(-c5cc(F)c(F)c(F)c5)nn4)[C@H]3O)C2)cc1 [Ex 1.03] | 5.45 | 0.31
COc1ccc(C2=NO[C@@H](C[C@H]3O[C@H](CO)[C@H](O)[C@H](n4cc(-c5cc(F)c(F)c(F)c5)nn4)[C@H]3O)C2)cc1 [Ex 1.04] | > 100 | 0.58
OC[C@H]1O[C@H](CC2CC(C3CCCCC3)=NO2)[C@H](O)[C@@H](n2cc(-c3cc(F)c(F)c(F)c3)nn2)[C@H]1O (stereo partly drawn) [Ex 1.05] | 7.18 | 0.48
OC[C@H]1O[C@H](C[C@H]2CC(C3CCCCC3)=NO2)[C@H](O)[C@@H](n2cc(-c3cc(F)c(F)c(F)c3)nn2)[C@H]1O [Ex 1.06] | 22.2 | 1.8
OC[C@H]1O[C@H](C[C@@H]2CC(C3CCCCC3)=NO2)[C@H](O)[C@@H](n2cc(-c3cc(F)c(F)c(F)c3)nn2)[C@H]1O [Ex 1.07] | 4.9 | 0.52
CO[C@@H]1[C@@H](n2cc(-c3cc(F)c(F)c(F)c3)nn2)[C@@H](O)[C@@H](CO)O[C@@H]1CC1CC(C2CCCCC2)=NO1 (stereo partly drawn) [Ex 1.08] | 8.74 | 1.08
CO[C@@H]1[C@@H](n2cc(-c3cc(F)c(F)c(F)c3)nn2)[C@@H](O)[C@@H](CO)O[C@@H]1C[C@H]1CC(C2CCCCC2)=NO1 [Ex 1.09] | 27.5 | 2.15
CO[C@@H]1[C@@H](n2cc(-c3cc(F)c(F)c(F)c3)nn2)[C@@H](O)[C@@H](CO)O[C@@H]1C[C@@H]1CC(C2CCCCC2)=NO1 [Ex 1.10] | 5.39 | 0.56
OC[C@H]1O[C@H](CC2CC(C3CCCC3)=NO2)[C@H](O)[C@@H](n2cc(-c3cc(F)c(F)c(F)c3)nn2)[C@H]1O (stereo partly drawn) [Ex 1.11] | 5.61 | 0.51
CO[C@@H]1[C@@H](n2cc(-c3cc(F)c(F)c(F)c3)nn2)[C@@H](O)[C@@H](CO)O[C@@H]1CC1CC(C2CCCC2)=NO1 (stereo partly drawn) [Ex 1.12] | 3.55 | 0.67
COc1ccc(C2=NOC(C[C@H]3O[C@H](CO)[C@H](O)[C@H](n4cc(-c5cc(F)c(F)c(F)c5)nn4)[C@H]3O)C2)c(Cl)c1 (stereo partly drawn) [Ex 1.13] | 6.34 | 1.11
OC[C@H]1O[C@H](CC2CC(c3cncnc3)=NO2)[C@H](O)[C@@H](n2cc(-c3cc(F)c(F)c(F)c3)nn2)[C@H]1O (stereo partly drawn) [Ex 1.14] | 2.27 | 0.68

SMILES | IC50 (human Gal-1 (hGal-1)) [µM] | IC50 (human Gal-3 (hGal-3)) [µM]
CO[C@@H]1[C@@H](n2cc(-c3cc(F)c(F)c(F)c3)nn2)[C@@H](O)[C@@H](CO)O[C@@H]1CC1CC(c2cncnc2)=NO1 (stereo partly drawn) [Ex 1.15] | 3.2 | 0.65
OC[C@H]1O[C@H](CC2CC(c3ccncc3)=NO2)[C@H](O)[C@@H](n2cc(-c3cc(F)c(F)c(F)c3)nn2)[C@H]1O (stereo partly drawn) [Ex 1.16] | 6.62 | 0.43
CO[C@@H]1[C@@H](n2cc(-c3cc(F)c(F)c(F)c3)nn2)[C@@H](O)[C@@H](CO)O[C@@H]1CC1CC(c2ccncc2)=NO1 (stereo partly drawn) [Ex 1.17] | 8.79 | 0.7
OC[C@H]1O[C@H](CC2CC(c3cccc(Cl)c3)=NO2)[C@H](O)[C@@H](n2cc(-c3cc(F)c(F)c(F)c3)nn2)[C@H]1O (stereo partly drawn) [Ex 1.18] | 14.1 | 0.97
CO[C@@H]1[C@@H](n2cc(-c3cc(F)c(F)c(F)c3)nn2)[C@@H](O)[C@@H](CO)O[C@@H]1CC1CC(C2CCOCC2)=NO1 (stereo partly drawn) [Ex 1.19] | 5.58 | 0.53
CO[C@@H]1[C@@H](n2cc(-c3cc(F)c(F)c(F)c3)nn2)[C@@H](O)[C@@H](CO)O[C@@H]1CC1CC(c2ccc3[nH]c(=O)oc3c2)=NO1 (stereo partly drawn) [Ex 1.20] | 4.27 | 0.24
O=c1[nH]c2ccc(C3=NOC(C[C@H]4O[C@H](CO)[C@H](O)[C@H](n5cc(-c6cc(F)c(F)c(F)c6)nn5)[C@H]4O)C3)cc2o1 (stereo partly drawn) [Ex 1.21] | 4.77 | 0.15
OC[C@H]1O[C@H](CC2CC(C3CCOCC3)=NO2)[C@H](O)[C@@H](n2cc(-c3cc(F)c(F)c(F)c3)nn2)[C@H]1O (stereo partly drawn) [Ex 1.22] | 4.48 | 0.43
COc1ccc(C2=NOC(C[C@H]3O[C@H](CO)[C@H](O)[C@H](n4cc(-c5cc(F)c(F)c(F)c5)nn4)[C@H]3O)C2)cn1 (stereo partly drawn) [Ex 1.23] | 6.8 | 0.7
COc1cc(C2=NOC(C[C@H]3O[C@H](CO)[C@H](O)[C@H](n4cc(-c5cc(F)c(F)c(F)c5)nn4)[C@H]3O)C2)ccn1 (stereo partly drawn) [Ex 1.24] | 13.3 | 0.8
COc1ccc(C2=NOC(C[C@H]3O[C@H](CO)[C@H](O)[C@H](n4cc(-c5cc(F)c(F)c(F)c5)nn4)[C@H]3O)C2)cc1O (stereo partly drawn) [Ex 1.25] | 4.97 | 0.67
OC[C@H]1O[C@H](CC2CC(c3ccc4[nH]cnc4c3)=NO2)[C@H](O)[C@@H](n2cc(-c3cc(F)c(F)c(F)c3)nn2)[C@H]1O (stereo partly drawn) [Ex 1.26] | 17.5 | 1.15
OC[C@H]1O[C@H](CC2CC(c3cn[nH]c3)=NO2)[C@H](O)[C@@H](n2cc(-c3cc(F)c(F)c(F)c3)nn2)[C@H]1O (stereo partly drawn) [Ex 1.27] | 6.54 | 0.41
Cn1c(=O)[nH]c2cc(C3=NOC(C[C@H]4O[C@H](CO)[C@H](O)[C@H](n5cc(-c6cc(F)c(F)c(F)c6)nn5)[C@H]4O)C3)ccc21 (stereo partly drawn) [Ex 1.28] | 18.9 | 0.47
CO[C@@H]1[C@@H](n2cc(-c3cc(F)c(F)c(F)c3)nn2)[C@@H](O)[C@@H](CO)O[C@@H]1C[C@H]1CC(c2ccc3[nH]c(=O)oc3c2)=NO1 [Ex 1.29] | > 100 | 2.14
CO[C@@H]1[C@@H](n2cc(-c3cc(F)c(F)c(F)c3)nn2)[C@@H](O)[C@@H](CO)O[C@@H]1C[C@@H]1CC(c2ccc3[nH]c(=O)oc3c2)=NO1 [Ex 1.30] | 3.09 | 0.33
O=c1[nH]c2ccc(C3=NO[C@@H](C[C@H]4O[C@H](CO)[C@H](O)[C@H](n5cc(-c6cc(F)c(F)c(F)c6)nn5)[C@H]4O)C3)cc2o1 [Ex 1.31] | 13.5 | 1.13
O=c1[nH]c2ccc(C3=NO[C@@H](C[C@H]4O[C@H](CO)[C@H](O)[C@H](n5cc(-c6cc(F)c(F)c(F)c6)nn5)[C@H]4O)C3)cc2o1 [Ex 1.32] | 1.15 | 0.053
OC[C@H]1O[C@H](CC2CC(c3ccc4cn[nH]c4c3)=NO2)[C@H](O)[C@@H](n2cc(-c3cc(F)c(F)c(F)c3)nn2)[C@H]1O (stereo partly drawn) [Ex 1.33] | 7.94 | 0.8
OC[C@H]1O[C@H](CC2CC(c3ccc4[nH]ncc4c3)=NO2)[C@H](O)[C@@H](n2cc(-c3cc(F)c(F)c(F)c3)nn2)[C@H]1O (stereo partly drawn) [Ex 1.34] | 10.6 | 0.88
OC[C@H]1O[C@H](CC2=NOC(C3CCCCC3)C2)[C@H](O)[C@@H](n2cc(-c3cc(F)c(F)c(F)c3)nn2)[C@H]1O (stereo partly drawn) [Ex 1.35] | 5.58 | 1
